Experiments:
hEP2 [1] = biological target: T1, hEP2 (Homo sapiens, UniProt P43116); experiment: Competition binding, [3H]PGE2, human EP2 receptors; parameters: expressed in transfected cells; host or cells: HEK 293; conditions: [3H]PGE2, HEK 293 cells stably expressing human EP2; read-out: hEP2 Ki
Description: Competition binding experiments were performed in a medium containing Hank's balanced salt solution, Hepes 20 mM, pH 7.3, membranes (˜60 μg protein) or 2×10^5 cells from HEK 293 cells stably expressing human EP2 receptors, [^3H]PGE2 (10 nM) and various concentrations of test compounds in a total volume of 300 μl. Reaction mixtures were incubated at 23° C. for 60 min, and were filtered over Whatman GF/B filters under vacuum. Filters were washed three times with 5 ml ice-cold buffer containing 50 mM Tris/HCl (pH 7.3). Non-specific binding was estimated in the presence of excess unlabeled PGE2 (10 μM). Binding data fitted to the binding model for a single class of binding sites, using nonlinear regression analysis. IC50 values thus obtained were converted to Ki using the equation of Ki=(IC50/(1+[L]/KD) where [L] represents PGE2 concentration (10 nM) and KD the dissociation constant for [^3H]PGE2 at human EP2 receptors (40 nM).
(§1) HEK-293 cells stably expressing the human or feline FP receptor, or EP1, EP2, or EP4 receptors were washed with TME buffer, scraped from the bottom of the flasks, and homogenized for 30 sec using a Brinkman PT 10/35 polytron. TME buffer was added to achieve a final 40 ml volume in the centrifuge tubes (the composition of TME is 100 mM TRIS base, 20 mM MgCl2, […]; 10N HCl is added to achieve a pH of 7.4).
(§2) The cell homogenate was centrifuged at 19000 r.p.m. for 20 min at 4° C. using a Beckman Ti-60 rotor. The resultant pellet was resuspended in TME buffer to give a final 1 mg/ml protein concentration, as determined by Biorad assay. Radioligand binding competition assays vs. [3H-] 17-phenyl PGF2, (5 nM) were performed in a 100 μl volume for 60 min. Binding reactions were started by adding plasma membrane fraction. The reaction was terminated by the addition of 4 ml ice-cold TRIS-HCl buffer and rapid filtration through glass fiber GF/B filters using a Brandel cell harvester. The filters were washed 3 times with ice-cold buffer and oven dried for one hour.
(§3) [^3H-] PGE2 (specific activity 180 Ci mmol) was used as the radioligand for EP receptors. [^3H] 17-phenyl PGF2, was employed for FP receptor binding studies. Binding studies employing EP1, EP2, EP4 and FP receptors were performed in duplicate in at least three separate experiments. A […] assay volume was used. Incubations were for 60 min at 25° C. and were terminated by the addition of 4 ml of ice-cold 50 mM TRIS-HCl, followed by rapid filtration through Whatman GF/B filters and three additional 4 ml washes in a cell harvester (Brandel). Competition studies were performed using a final concentration of 5 nM [^3H]-PGE2, or 5 nM [^3H] 17-phenyl PGF2, and non-specific binding determined with 10^−5M of unlabeled PGE2, or 17-phenyl PGF2α, according to receptor subtype studied.

hEP2 [2] = biological target: T1, hEP2; experiment: FLIPR calcium signal, hEP2; format: cell-based; parameters: expressed in transfected cells; host or cells: HEK-293(EBNA); conditions: HEK-293(EBNA) cells expressing hEP2/Gqs5
Description: Methods for FLIPR™ Studies
HEK-293(EBNA) cells, stably expressing one type or subtype of recombinant human prostaglandin receptors (prostaglandin receptors expressed: hDP/Gqs5; hEP1; hEP2/Gqs5; hEP3A/Gqi5; hEP4/Gqs5; hFP; hIP; hTP), were cultured in 100 mm culture dishes in high-glucose DMEM medium containing 10% fetal bovine serum, 2 mM 1-glutamine, 250 μg/ml geneticin (G418) and 200 μg/ml hygromycin B as selection markers, and 100 units/ml penicillin G, 100 μg/ml streptomycin and 0.25 μg/ml amphotericin B.
Cells were seeded at a density of 5×10^4 cells per well in Biocoat® Poly-D-lysine-coated black-wall, clear-bottom 96-well plates (Becton-Dickinson) and allowed to attach overnight in an incubator at 37° C. Cells were then washed two times with HBSS-HEPES buffer (Hanks Balanced Salt Solution without bicarbonate and phenol red, 20 mM HEPES, pH 7.4) using a Denley Cellwash plate washer (Labsystems). After 45 minutes of dye-loading in the dark, using the calcium-sensitive dye Fluo-4 AM at a final concentration of 2 μM, plates were washed four times with HBSS-HEPES buffer to remove excess dye leaving 100 μl in each well. Plates were re-equilibrated to 37° C. for a few minutes.
Cells were excited with an Argon laser at 488 nm, and emission was measured through a 510-570 nm bandwidth emission filter (FLIPR™, Molecular Devices, Sunnyvale, Calif.). Drug solution was added in a 50 μl volume to each well to give the desired final concentration. The peak increase in fluorescence intensity was recorded for each well. On each plate, four wells each served as negative (HBSS-HEPES buffer) and positive controls (standard agonists: BW245C (hDP); PGE2 (hEP1; hEP2/Gqs5; hEP3A/Gqi5; hEP4/Gqs5); PGF2α (hFP); carbacyclin (hIP); U-46619 (hTP), depending on receptor). The peak fluorescence change in each drug-containing well was then expressed relative to the controls.
Compounds were tested in a high-throughput (HTS) or concentration-response (CoRe) format. In the HTS format, forty-four compounds per plate were examined in duplicates at a concentration of 10^−5 M. To generate concentration-response curves, four compounds per plate were tested in duplicates in a concentration range between 10^−5 and 10^−11 M. The duplicate values were averaged. In either, HTS or CoRe format each compound was tested on at least 3 separate plates using cells from different passages to give an n≧3.

hEP4 = hEP4 (Homo sapiens, UniProt P35408); experiment: Radioligand binding, EP4 receptor; parameters: expressed in transfected cells; host or cells: HEK-293; conditions: [3H]PGE2, HEK-293 cells expressing EP4
Description: as §1, §2, §3

hEP2 [3] = biological target: T1, hEP2; experiment: cAMP assay, hEP2; format: cell-based

Chain of hEP4 (P35408 whole entry): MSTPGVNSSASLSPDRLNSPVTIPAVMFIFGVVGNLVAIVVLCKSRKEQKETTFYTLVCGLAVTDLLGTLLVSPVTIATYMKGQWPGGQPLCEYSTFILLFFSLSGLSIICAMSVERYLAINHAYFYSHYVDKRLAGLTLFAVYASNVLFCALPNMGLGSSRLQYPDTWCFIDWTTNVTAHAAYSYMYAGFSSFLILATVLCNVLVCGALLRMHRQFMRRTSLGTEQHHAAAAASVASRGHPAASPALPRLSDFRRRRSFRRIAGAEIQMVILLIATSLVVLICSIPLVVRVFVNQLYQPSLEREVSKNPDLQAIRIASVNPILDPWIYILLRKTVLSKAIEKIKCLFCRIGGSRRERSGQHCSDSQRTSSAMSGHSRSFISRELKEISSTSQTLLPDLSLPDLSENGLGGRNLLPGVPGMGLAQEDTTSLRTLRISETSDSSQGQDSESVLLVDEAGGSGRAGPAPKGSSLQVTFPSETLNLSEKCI
T1 sequence (P43116 whole entry): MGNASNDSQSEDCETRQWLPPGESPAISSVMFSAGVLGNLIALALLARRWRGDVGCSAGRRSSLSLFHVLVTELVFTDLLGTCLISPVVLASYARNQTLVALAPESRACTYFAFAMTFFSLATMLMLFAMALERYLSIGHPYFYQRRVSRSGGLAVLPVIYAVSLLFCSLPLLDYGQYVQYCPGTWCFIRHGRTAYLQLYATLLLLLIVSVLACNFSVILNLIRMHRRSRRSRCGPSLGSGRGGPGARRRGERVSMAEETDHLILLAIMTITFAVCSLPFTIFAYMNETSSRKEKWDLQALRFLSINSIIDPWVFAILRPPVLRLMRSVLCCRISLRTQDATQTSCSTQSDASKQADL

Cc1cc(OC[C@@H]2[C@@H](C/C=C\CCCC(=O)O)[C@H](Cl)C[C@H]2O)cc(C)c1CO [Example 56, (Z)-7-[(1R,2S,3R,5R)-5-Chloro-3-hydroxy-2-(4-hydroxymethyl-3,5-dimethyl-phenoxymethyl)-cyclopentyl]-hept-5-enoic acid]
Ki (hEP2 [1]): 64 nM | EC50 (hEP2 [2]): 27 nM | Ki (hEP4): 2200 nM | EC50 (hEP2 [3]): 1.8 nM

O=C(O)CCC/C=C\C[C@@H]1[C@@H](COc2cccc(CO)c2)[C@H](O)C[C@H]1Cl [Example 49, (Z)-7-[(1R,2S,3R,5R)-5-Chloro-3-hydroxy-2-(3-hydroxymethyl-phenoxymethyl)-cyclopentyl]-hept-5-enoic acid]
Ki (hEP2 [1]): 207 nM | EC50 (hEP2 [2]): 374 nM | Ki (hEP4): > 10000 nM | EC50 (hEP2 [3]): 14 nM

CC(O)c1ccc(OC[C@@H]2[C@@H](C/C=C\CCCC(=O)O)[C@H](Cl)C[C@H]2O)cc1 (stereo partly drawn) [Example 47, (Z)-7-{(1R,2S,3R,5R)-5-Chloro-3-hydroxy-2-[4-(1-hydroxy-ethyl)-phenoxymethyl]-cyclopentyl}-hept-5-enoic acid]
Ki (hEP2 [1]): 5290 nM | EC50 (hEP2 [2]): 1940 nM | Ki (hEP4): > 10000 nM | EC50 (hEP2 [3]): 124 nM

COCc1c(C)cc(OC[C@@H]2[C@@H](C/C=C\CCCC(=O)O)[C@H](Cl)C[C@H]2O)cc1C [Example 57, (Z)-7-[(1R,2S,3R,5R)-5-Chloro-3-hydroxy-2-(4-methoxymethyl-3,5-dimethyl-phenoxymethyl)-cyclopentyl]-hept-5-enoic acid]
Ki (hEP2 [1]): 195 nM | EC50 (hEP2 [2]): 142 nM | Ki (hEP4): 1660 nM | EC50 (hEP2 [3]): 23 nM

CC(O)c1cccc(OC[C@@H]2[C@@H](C/C=C\CCCC(=O)O)[C@H](Cl)C[C@H]2O)c1 (stereo partly drawn) [Example 54, (Z)-7-{(1R,2S,3R,5R)-5-Chloro-3-hydroxy-2-[3-(1-hydroxy-ethyl)-phenoxymethyl]-cyclopentyl}-hept-5-enoic acid]
Ki (hEP2 [1]): 701 nM | EC50 (hEP2 [2]): 121 nM | Ki (hEP4): > 10000 nM | EC50 (hEP2 [3]): 40 nM

O=C(O)CCC/C=C\C[C@@H]1[C@@H](COc2cccc(C(O)Cc3ccccc3)c2)[C@H](O)C[C@H]1Cl (stereo partly drawn) [Example 53, (Z)-7-{(1R,2S,3R,5R)-5-Chloro-3-hydroxy-2-[3-(1-hydroxy-2-phenyl-ethyl)-phenoxymethyl]-cyclopentyl}-hept-5-enoic acid]
Ki (hEP2 [1]): 1750 nM | EC50 (hEP2 [2]): 1730 nM | Ki (hEP4): 1850 nM | EC50 (hEP2 [3]): 496 nM

O=Cc1ccc(OC[C@@H]2[C@@H](C/C=C\CCCC(=O)O)[C@H](Cl)C[C@H]2O)cc1 [Example 42, (Z)-7-[(1R,2S,3R,5R)-5-Chloro-2-(4-formyl-phenoxymethyl)-3-hydroxy-cyclopentyl]-hept-5-enoic acid]
Ki (hEP2 [1]): 1500 nM | EC50 (hEP2 [2]): > 10000 nM | Ki (hEP4): > 10000 nM | EC50 (hEP2 [3]): 18 nM

CCCC(O)c1ccc(OC[C@@H]2[C@@H](C/C=C\CCCC(=O)O)[C@H](Cl)C[C@H]2O)cc1 (stereo partly drawn) [Example 44, (Z)-7-{(1R,2S,3R,5R)-5-Chloro-3-hydroxy-2-[4-(1-hydroxy-butyl)-phenoxymethyl]-cyclopentyl}-hept-5-enoic acid]
Ki (hEP2 [1]): 2730 nM | EC50 (hEP2 [2]): 1100 nM | Ki (hEP4): > 10000 nM | EC50 (hEP2 [3]): 66 nM

CC(C)C(O)c1cccc(OC[C@@H]2[C@@H](C/C=C\CCCC(=O)O)[C@H](Cl)C[C@H]2O)c1 (stereo partly drawn) [Example 51, (Z)-7-{(1R,2S,3R,5R)-5-Chloro-3-hydroxy-2-[3-(1-hydroxy-2-methyl-propyl)-phenoxymethyl]-cyclopentyl}-hept-5-enoic acid]
Ki (hEP2 [1]): 772 nM | EC50 (hEP2 [2]): 196 nM | Ki (hEP4): > 10000 nM | EC50 (hEP2 [3]): 39 nM

CC(C)(c1ccccc1)c1ccc(OC[C@@H]2[C@@H](C/C=C\CCCC(=O)O)[C@H](Cl)C[C@H]2O)cc1 [Example 31, (Z)-7-{(1R,2S,3R,5R)-5-Chloro-3-hydroxy-2-[4-(1-methyl-1-phenyl-ethyl)-phenoxymethyl]-cyclopentyl}-hept-5-enoic acid]
Ki (hEP2 [1]): > 10000 nM | EC50 (hEP2 [2]): > 10000 nM | Ki (hEP4): 1740 nM

O=C(O)CCC/C=C\C[C@@H]1[C@@H](COc2cccc3c2CCC3O)[C@H](O)C[C@H]1Cl (stereo partly drawn) [Example 59, (Z)-7-[(1R,2S,3R,5R)-5-Chloro-3-hydroxy-2-(1-hydroxy-indan-4-yloxymethyl)-cyclopentyl]-hept-5-enoic acid]
Ki (hEP2 [1]): 139 nM | EC50 (hEP2 [2]): 108 nM | Ki (hEP4): 3000 nM | EC50 (hEP2 [3]): 1.2 nM

CCCCCC(O)c1cccc(OC[C@@H]2[C@@H](C/C=C\CCCC(=O)O)[C@H](Cl)C[C@H]2O)c1 (stereo partly drawn) [Example 50, (Z)-7-{(1R,2S,3R,5R)-5-Chloro-3-hydroxy-2-[3-(1-hydroxy-hexyl)-phenoxymethyl]-cyclopentyl}-hept-5-enoic acid]
Ki (hEP2 [1]): 826 nM | EC50 (hEP2 [2]): 463 nM | Ki (hEP4): 1130 nM | EC50 (hEP2 [3]): 68 nM

O=C(O)CCC/C=C\C[C@@H]1[C@@H](COc2cccc3c2CCC3=O)[C@H](O)C[C@H]1Cl [Example 58, (Z)-7-[(1R,2S,3R,5R)-5-Chloro-3-hydroxy-2-(1-oxo-indan-4-yloxymethyl)-cyclopentyl]-hept-5-enoic acid]
Ki (hEP2 [1]): 129 nM | EC50 (hEP2 [2]): 51 nM | Ki (hEP4): 2830 nM | EC50 (hEP2 [3]): 6.5 nM

CCCC(OC)c1ccc(OC[C@@H]2[C@@H](C/C=C\CCCC(=O)O)[C@H](Cl)C[C@H]2O)cc1 (stereo partly drawn) [Example 45, (Z)-7-{(1R,2S,3R,5R)-5-Chloro-3-hydroxy-2-[4-(1-methoxy-butyl)-phenoxymethyl]-cyclopentyl}-hept-5-enoic acid]
Ki (hEP2 [1]): 904 nM | EC50 (hEP2 [2]): 661 nM | Ki (hEP4): 5280 nM | EC50 (hEP2 [3]): 47 nM

CCCCCC(O)c1ccc(OC[C@@H]2[C@@H](C/C=C\CCCC(=O)O)[C@H](Cl)C[C@H]2O)cc1 (stereo partly drawn) [Example 46, (Z)-7-{(1R,2S,3R,5R)-5-Chloro-3-hydroxy-2-[4-(1-hydroxy-hexyl)-phenoxymethyl]-cyclopentyl}-hept-5-enoic acid]
Ki (hEP2 [1]): 2350 nM | EC50 (hEP2 [2]): 531 nM | Ki (hEP4): 2650 nM | EC50 (hEP2 [3]): 119 nM
